{"source": "patent US20050049309A1", "about": "“Regulation of HIF protein levels via deubiquitination pathway” (priority 2003, published 2005)", "key": {"HIF-1α protein": {"system": "HIF-1α protein", "conditions": "recent studies (literature); cited from earlier work"}, "hypoxic cells": {"system": "hypoxic cells", "conditions": "cited from earlier work"}, "[1]": {"conditions": "cited from earlier work"}, "HIF-1α": {"system": "HIF-1α", "assay_type": "cell-based, human"}, "[2]": {"system": "deubiquitinase enzyme activity (HT-29 cell lysate) on polyubiquitinated HIF-1α", "assay_type": "biochemical, human"}}, "note": "Where a SMILES comes first, the peptide text is derived from it. [ ]: non-standard residue; d: D form. The star is where a group is joined. Nva = CCC[C@H](N)C(=O)O; Cbz = O=C(OCc1ccccc1)*"}
{"smiles": "C=CCNC1=C2C[C@@H](C)C[C@H](OC)[C@H](O)[C@@H](C)/C=C(\\C)[C@H](OC(N)=O)[C@@H](OC)/C=C\\C=C(/C)C(=O)NC(=CC1=O)C2=O", "note": "[17-AAG, 17-allylamino-17-desmethoxygeldanamycin]", "values": [{"measurement": "HIF-1α protein in cell-lines lacking pVHL", "setting": "HIF-1α protein", "value": "promote the loss of HIF-1α protein"}]}
{"smiles": "O=C(O)CCCc1ccc(N(CCCl)OCCCl)cc1", "note": "[CHL-HD]", "values": [{"measurement": "Toxicity with reducing enzymes under hypoxia", "setting": "hypoxic cells", "value": "greater toxicity"}, {"measurement": "In vivo toxicity", "setting": "[1]", "value": "minimal in vivo toxicity"}]}
{"smiles": "C[C@@H]1C[C@@H]([C@H](O)CC2CC(=O)NC(=O)C2)C(=O)[C@@H](C)C1", "note": "[Cycloheximide, cycloheximide]", "values": [{"measurement": "Ubiquitination of HIF-1α with proteasome inhibited", "setting": "HIF-1α", "value": "no affect"}]}
{"smiles": "CCC[C@@H](C=O)NC(=O)[C@H](CC(C)C)NC(=O)[C@H](CC(C)C)NC(=O)OCc1ccccc1", "note": "[LLnV, N-carbobenzoxy-Leu-Leu-norvalinal] (Cbz-Leu-Leu-[Nva]-aldehyde)", "values": [{"measurement": "Deubiquitination of HIF-1α in vitro", "setting": "[2]", "value": "did not affect"}]}
